From patent US20030180355A1, “Combination therapy for hypertension” (priority 2001, published 2003)
Marks after values point to notes of the source that are not given here.

Legend:
[1] = tested on: uninephrectomized anesthetized rats; test: Model of acute angiotensin-mediated renal hypertension in anesthetized rats; format: in vivo, Sprague-Dawley rats
Method: Male Sprague-Dawley rats, weighing 250-300 g, were anaesthetized with pentobarbital sodium (35 mg/kg, i.p.) and placed on a thermic blanket. The temperature was maintained at 37° C. with a thermoregulator via a rectal probe. The animals were tracheotomized to facilitate spontaneous breathing. A polyethylene catheter was placed in the left jugular vein to allow for infusion of pentobarbital sodium to maintain anesthesia. The left femoral vein and artery were cannulated with polyethylene catheters to allow drugs administration and to monitor blood pressure, respectively.
The animals then underwent a left nephrectomy by excising the left kidney via a flank incision. The right kidney and renal vein, artery and ureter then were exposed via a right retroperitoneal incision, under a dissecting microscope. Silk threads were placed around both vessels and ureter. The cavity was then covered with Vaseline oil. See Recordati, et al. 2000, J. Hypertension, 18:1277-1287.
ECG (lead II) was recorded by means of subcutaneous electrodes. After 30-60 minutes of basal recordings of arterial blood pressure and heart rate the threads around the renal vessels and ureter were tied close to the renal hilum to induce complete renal ischemia of the right kidney. After 2 hours of ischemia (designed as “120” in Tables 1-4), the threads were removed to allow renal reperfusion and urine output. The reopening of the renal hilum and restoration of renal circulation, induced an increase in blood pressure that peaked 5-10 minutes and lasted about 60 minutes. Drugs (vehicle, enalapril (100 μg/kg), lercanidipine (10 μg/kg), or both lercanidipine (10 μg/kg) and enalapril (100 μg/kg)) were administered intravenously at 5 minutes after reperfusion began (defined as 125 in Tables 4-7).
Statistical analysis was performed during the reperfusion time (time 125-180 minutes). To evaluate the statistical differences among the treatment groups, data were analyzed using a three-way ANOVA (analysis of variance) with repeated measures on factor time and pre-planned multiple comparisons. Statistical analysis was performed by means of general linear model procedure (GLM) with SAS software version 6.12.

[2] = tested on: patients with a sitting diastolic blood pressure (SDBP) of 95-109 mm Hg; test: Clinical study, factorial design, randomized double-blind placebo-controlled, 8 weeks; format: in vivo, human; settings: for Therapeutic response rate, study participants with SDBP < 90 mm Hg / Change in SSBP / Change in SDBP: 8 weeks; for Change in SSBP / Change in SDBP: vs baseline, response surface analysis
Method: A multi-center, randomized, double-blind, placebo-controlled, parallel groups, factorial design trial was conducted. After a 14-day (±3 days) screening/washout period during which patients were washed from ongoing antihypertensive therapy, eligible patients with a sitting diastolic blood pressure (SDBP) of 95-109 mm Hg, entered the 28 day (±3 days) single-blind placebo run-in period during which they received placebo once-daily. Patients who were not responsive to this treatment and whose SDBP was 95-109 mm Hg, were randomized into an eight-week double-blind treatment phase. Baseline measurements were taken on Study Day 0 with post-therapy assessments during the double blind period scheduled on Study Days 14, 28, 42, and 56. Laboratory tests were conducted prior to the beginning of the screening period and on study Day 0 as well as at the end of the study.
The number of patients screened was greater than 800; 798 entered the 4-week single-blind placebo period, and 663 eligible patients were randomized into the 8-week double-blind treatment. The number in parenthesis represents the number of patients in each group available for efficacy evaluation.
The patients were randomized into one of the above noted 12 treatment groups. Tablets of lercanidipine (5 and 10 mg) and enalapril (2.5 mg) were encapsulated in the appropriate doses, in order to assure double-blind conditions. All tablets were of commercial origin except for the 5 mg lercanidipine, which were prepared in accordance with Table 3.
Patients were instructed to take one capsule of the study medication once daily 15 minutes before breakfast, between 6 and 10 am. All medications were to be withheld on mornings of clinic visits until after blood pressure evaluations at 22-26 hours following the previous day's dose of study medication.
1. Trough (Minimum) (24±2 hours post-dose) sitting diastolic blood pressure (SDBP)
2. Trough (24±2 hours post-dose) sitting systolic blood pressure (SSBP)
4. Percent of patients with SDBP<90 mm Hg
The primary efficacy variable was the change from baseline to mean trough SDBP after 8 weeks of double-blind treatment. The analysis was performed in an “intent-to-treat” fashion, including all randomized patients who had received at least one dose of double-blind treatment, and had at least one post-baseline SDBP measurement 18-48 hours post-dose. In case of premature withdrawal from the study the last observation carried forward (LOCF) algorithm was applied (“end point analysis”).
The overall treatment comparison was performed using an analysis of covariance (ANCOVA) with treatment and centers as main effects and baseline value as covariate.
An additional ANOVA was performed using the factorial model in order to test for the interaction of lercanidipine dose and enalapril dose at each time-point.
The number of patients who discontinued the study because of an adverse event is reported in parenthesis.

[3] = cited from earlier work
[4] = lercanidipine 10 μg/kg i.v., time 0 min, basal
[5] = lercanidipine 10 μg/kg i.v., time 120 min, end of ischemia, before drug
[6] = lercanidipine 10 μg/kg i.v., time 125 min, reperfusion, before drug
[7] = lercanidipine 10 μg/kg i.v., time 130 min, drug given at 125 min
[8] = lercanidipine 10 μg/kg i.v., time 135 min, drug given at 125 min
[9] = lercanidipine 10 μg/kg i.v., time 150 min, drug given at 125 min
[10] = lercanidipine 10 μg/kg i.v., time 165 min, drug given at 125 min
[11] = lercanidipine 10 μg/kg i.v., time 180 min, drug given at 125 min
[12] = lercanidipine 5 mg once daily, 54 patients randomized
[13] = lercanidipine 10 mg once daily, 57 patients randomized
[14] = lercanidipine 20 mg once daily, 54 patients randomized
[15] = enalapril 100 μg/kg i.v., time 0 min, basal
[16] = enalapril 100 μg/kg i.v., time 120 min, end of ischemia, before drug
[17] = enalapril 100 μg/kg i.v., time 125 min, reperfusion, before drug
[18] = enalapril 100 μg/kg i.v., time 130 min, drug given at 125 min
[19] = enalapril 100 μg/kg i.v., time 135 min, drug given at 125 min
[20] = enalapril 100 μg/kg i.v., time 150 min, drug given at 125 min
[21] = enalapril 100 μg/kg i.v., time 165 min, drug given at 125 min
[22] = enalapril 100 μg/kg i.v., time 180 min, drug given at 125 min
[23] = enalapril 5 mg once daily, 55 patients randomized
[24] = enalapril 10 mg once daily, 55 patients randomized

COC(=O)C1=C(C)NC(C)=C(C(=O)OC(C)(C)CN(C)CCC(c2ccccc2)c2ccccc2)C1c1cccc([N+](=O)[O-])c1 (stereo not drawn) [lercanidipine, methyl 1,1,N-trimethyl-N-(3,3-diphenylpropyl)-2-aminoethyl 1,4-dihydro-2,6-dimethyl-4-(3-nitrophenyl)pyridine-3,5-dicarboxylate]
DBP (diastolic blood pressure) [1, 4]: 69.8 ± 2.5 mmHg | MBP (mean blood pressure) [1, 4]: 83.3 ± 2.8 mmHg | SBP (systolic blood pressure) [1, 4]: 110.4 ± 3.6 mmHg | DBP (diastolic blood pressure) [1, 5]: 70.6 ± 5.4 mmHg | MBP (mean blood pressure) [1, 5]: 85.3 ± 5.7 mmHg | SBP (systolic blood pressure) [1, 5]: 114.5 ± 6.5 mmHg | DBP (diastolic blood pressure) [1, 6]: 119.3 ± 5.2 mmHg | MBP (mean blood pressure) [1, 6]: 135.4 ± 6.4 mmHg | SBP (systolic blood pressure) [1, 6]: 167.6 ± 8.9 mmHg | DBP (diastolic blood pressure) [1, 7]: 97.1 ± 3.1 c mmHg | MBP (mean blood pressure) [1, 7]: 111.5 ± 3.2 c mmHg | SBP (systolic blood pressure) [1, 7]: 140.4 ± 3.8 b mmHg | DBP (diastolic blood pressure) [1, 8]: 93.1 ± 4.0 c mmHg | MBP (mean blood pressure) [1, 8]: 108.9 ± 3.7 c mmHg | SBP (systolic blood pressure) [1, 8]: 140.5 ± 3.7 a mmHg | DBP (diastolic blood pressure) [1, 9]: 89.5 ± 4.3 b mmHg | MBP (mean blood pressure) [1, 9]: 106.1 ± 3.9 b mmHg | SBP (systolic blood pressure) [1, 9]: 139.4 ± 3.7 mmHg | DBP (diastolic blood pressure) [1, 10]: 83.5 ± 4.6 a mmHg | MBP (mean blood pressure) [1, 10]: 99.7 ± 4.7 mmHg | SBP (systolic blood pressure) [1, 10]: 132.0 ± 5.3 mmHg | DBP (diastolic blood pressure) [1, 11]: 78.8 ± 4.0 mmHg | MBP (mean blood pressure) [1, 11]: 95.2 ± 4.1 mmHg | SBP (systolic blood pressure) [1, 11]: 128.1 ± 4.7 mmHg | Therapeutic response rate, study participants with SDBP < 90 mm Hg ([2]; lercanidipine 5 mg once daily): 32% | Change in SSBP ([2]; lercanidipine 5 mg once daily, confidence interval in parentheses): −9.5 (7.8-11.1) | number of patients who discontinued the study because of an adverse event [2, 12]: 3 | number of patients with any adverse events related to study drug [2, 12]: 8 | Therapeutic response rate, study participants with SDBP < 90 mm Hg ([2]; lercanidipine 10 mg once daily): 40% | Change in SDBP ([2]; lercanidipine 10 mg once daily): −8.2 | Change in SSBP ([2]; lercanidipine 10 mg once daily, confidence interval in parentheses): −10.8 (9.1-12.4) | number of patients who discontinued the study because of an adverse event [2, 13]: 1 | number of patients with any adverse events related to study drug [2, 13]: 10 | Therapeutic response rate, study participants with SDBP < 90 mm Hg ([2]; lercanidipine 20 mg once daily): 59%* | Change in SDBP ([2]; lercanidipine 20 mg once daily): −9.9* | Change in SSBP ([2]; lercanidipine 20 mg once daily, in mm Hg): −13.4* (11.1-15.6) | number of patients who discontinued the study because of an adverse event [2, 14]: 3 | number of patients with any adverse events related to study drug [2, 14]: 10 | time of peak plasma levels ([3]; following oral dosing): 2 to 3 h

CCOC(=O)[C@H](CCc1ccccc1)N[C@@H](C)C(=O)N1CCC[C@H]1C(=O)O [enalapril, (S)-1-[N-1-(ethoxycarbonyl)-3-phenylpropyl]-L-alanyl-L-proline]
DBP (diastolic blood pressure) [1, 15]: 69.6 ± 2.1 mmHg | MBP (mean blood pressure) [1, 15]: 83.4 ± 2.1 mmHg | SBP (systolic blood pressure) [1, 15]: 111.0 ± 2.6 mmHg | DBP (diastolic blood pressure) [1, 16]: 65.1 ± 3.5 mmHg | MBP (mean blood pressure) [1, 16]: 80.0 ± 3.9 mmHg | SBP (systolic blood pressure) [1, 16]: 109.9 ± 5.1 mmHg | DBP (diastolic blood pressure) [1, 17]: 124.9 ± 4.3 mmHg | MBP (mean blood pressure) [1, 17]: 142.2 ± 5.4 mmHg | SBP (systolic blood pressure) [1, 17]: 176.8 ± 8.1 mmHg | DBP (diastolic blood pressure) [1, 18]: 109.9 ± 4.1 a mmHg | MBP (mean blood pressure) [1, 18]: 122.0 ± 4.1 b mmHg | SBP (systolic blood pressure) [1, 18]: 146.1 ± 4.5 c mmHg | DBP (diastolic blood pressure) [1, 19]: 107.1 ± 4.5 a mmHg | MBP (mean blood pressure) [1, 19]: 119.4 ± 4.2 b mmHg | SBP (systolic blood pressure) [1, 19]: 143.9 ± 4.1 b mmHg | DBP (diastolic blood pressure) [1, 20]: 95.9 ± 7.9 b mmHg | MBP (mean blood pressure) [1, 20]: 109.0 ± 7.4 c mmHg | SBP (systolic blood pressure) [1, 20]: 135.4 ± 6.6 b mmHg | DBP (diastolic blood pressure) [1, 21]: 86.5 ± 8.5 b mmHg | MBP (mean blood pressure) [1, 21]: 100.5 ± 8.0 b mmHg | SBP (systolic blood pressure) [1, 21]: 128.5 ± 7.6 a mmHg | DBP (diastolic blood pressure) [1, 22]: 78.9 ± 7.6 a mmHg | MBP (mean blood pressure) [1, 22]: 93.7 ± 7.2 a mmHg | SBP (systolic blood pressure) [1, 22]: 123.4 ± 6.9 mmHg | p value on mean blood pressure vs lercanidipine ([1]; three-way ANOVA, reperfusion time 125-180 min, lercanidipine 10 μg/kg, enalapril 100 μg/kg i.v.): p < 0.001 | Therapeutic response rate, study participants with SDBP < 90 mm Hg ([2]; enalapril 5 mg once daily): 28% | Change in SDBP ([2]; enalapril 5 mg once daily): −7.7 | Change in SSBP ([2]; enalapril 5 mg once daily, confidence interval in parentheses): −9.6 (8.1-11.2) | number of patients who discontinued the study because of an adverse event [2, 23]: 1 | number of patients with any adverse events related to study drug [2, 23]: 9 | Therapeutic response rate, study participants with SDBP < 90 mm Hg ([2]; enalapril 10 mg once daily): 43% | Change in SDBP ([2]; enalapril 10 mg once daily): −8.8 | Change in SSBP ([2]; enalapril 10 mg once daily, confidence interval in parentheses): −11.1 (9.1-13.2) | number of patients who discontinued the study because of an adverse event [2, 24]: 1 | number of patients with any adverse events related to study drug [2, 24]: 12 | time of peak plasma levels of enalaprilat ([3]; following oral administration of enalapril): 3 to 4 h
